For this experiment, the target named is S. pneumoniae Topoisomerase IV ATPase (ParE) (Streptococcus pneumoniae serotype 4, UniProt Q59961). In words: S. pneumoniae Topoisomerase IV ATPase inhibition. The class given is biochemical. The following applies: values marked * are an average of two or more data points, read-out: % Inh (13 μM) of S. pneumoniae Topoisomerase IV ATPase. In a few lines:
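S. pneumoniae ParE (1.25 nM) ATPase with 160 μM ATP and 5 μg/ml sheared DNA in pH 8.0 Tris, Mg2+, DTT, Brij-35; phosphate detected by malachite green/molybdate at 650 nm. Normalised to 2% DMSO (0%) and 20 μM EDTA (100%); IC50 from 10 concentrations.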
Chain of S. pneumoniae Topoisomerase IV ATPase (ParE) (Q59961 whole entry): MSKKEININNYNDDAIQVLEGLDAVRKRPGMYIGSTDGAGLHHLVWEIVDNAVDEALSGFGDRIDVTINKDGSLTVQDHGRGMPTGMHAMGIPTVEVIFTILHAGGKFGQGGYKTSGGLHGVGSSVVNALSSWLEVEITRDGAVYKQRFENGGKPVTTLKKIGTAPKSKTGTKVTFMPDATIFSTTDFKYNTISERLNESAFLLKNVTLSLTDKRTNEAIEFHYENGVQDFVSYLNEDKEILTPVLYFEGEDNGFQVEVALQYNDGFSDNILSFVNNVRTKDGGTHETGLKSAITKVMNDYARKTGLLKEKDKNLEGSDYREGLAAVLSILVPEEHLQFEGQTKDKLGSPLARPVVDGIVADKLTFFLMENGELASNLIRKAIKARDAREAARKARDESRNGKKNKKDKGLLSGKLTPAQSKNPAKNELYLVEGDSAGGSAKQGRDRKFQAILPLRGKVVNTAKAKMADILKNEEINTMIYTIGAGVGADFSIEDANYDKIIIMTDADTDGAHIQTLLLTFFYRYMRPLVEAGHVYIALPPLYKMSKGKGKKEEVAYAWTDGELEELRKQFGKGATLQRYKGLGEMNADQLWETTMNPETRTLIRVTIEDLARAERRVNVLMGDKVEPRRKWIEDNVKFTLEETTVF
Turning to `COCCCNc1nc(Nc2ccc(F)c(Cl)c2)ncc1-c1nc(C)c(C(=O)O)s1` [Example 509, 2-{2-[(3-chloro-4-fluorophenyl)amino]-4-[(3-methoxypropyl)amino]pyrimidin-5-yl}-4-methyl-1,3-thiazole-5-carboxylic acid], the inhibition at 13 µM worked out at 100%.

Regarding `COCCCNc1nc(Nc2ccc(F)c(Cl)c2)ncc1-c1nc(-c2ccccc2)c(C(=O)O)s1` [Example 510, 2-{2-[(3-chloro-4-fluorophenyl)amino]-4-[(3-methoxypropyl)amino]pyrimidin-5-yl}-4-phenyl-1,3-thiazole-5-carboxylic acid], the inhibition at 13 µM worked out at 97%.

As for `COCCCNc1nc(Nc2ccc(F)c(Cl)c2)ncc1-c1nc(-c2ccccn2)c(C(=O)O)s1` [Example 511, 2-{2-[(3-chloro-4-fluorophenyl)amino]-4-[(3-methoxypropyl)amino]pyrimidin-5-yl}-4-(pyridin-2-yl)-1,3-thiazole-5-carboxylic acid], the inhibition at 13 µM stood at 100%.

With `COCCCNc1nc(Nc2ccc(F)c(Cl)c2)ncc1-c1nc(-c2ccn(C)n2)c(C(=O)O)s1` [Example 512, 2-{2-[(3-chloro-4-fluorophenyl)amino]-4-[(3-methoxypropyl)amino]pyrimidin-5-yl}-4-(1-methyl-1H-pyrazol-3-yl)-1,3-thiazole-5-carboxylic acid], the inhibition at 13 µM worked out at 100%.

In the case of `O=C(O)/C=C/c1cccc(-c2cnc(Nc3ccc(F)c(CO)c3)nc2N2CCOCC2)c1` [Example 516, (2E)-3-{3-[2-{[4-fluoro-3-(hydroxymethyl)phenyl]amino}-4-(morpholin-4-yl)pyrimidin-5-yl]phenyl}prop-2-enoic acid], the inhibition at 13 µM was 98%.

For `O=C(O)/C=C/c1cccc(-c2cnc(Nc3cccc4cc[nH]c34)nc2N2CCOCC2)c1` [Example 517, (2E)-3-{3-[2-(1H-indol-7-ylamino)-4-(morpholin-4-yl)pyrimidin-5-yl]phenyl}prop-2-enoic acid], the inhibition at 13 µM is 100%.

Regarding `Cc1cc(-c2nccs2)nn1-c1nc(Nc2ccc(F)c(Cl)c2)ncc1-c1cncc(C(=O)O)c1` [Example 529, 5-{2-[(3-chloro-4-fluorophenyl)amino]-4-[5-methyl-3-(1,3-thiazol-2-yl)-1H-pyrazol-1-yl]pyrimidin-5-yl}pyridine-3-carboxylic acid], the inhibition at 13 µM came to 100%.

For `Cc1cc(C(F)F)nn1-c1nc(Nc2ccc(F)c(Cl)c2)ncc1-c1cncc(C(=O)O)c1` [Example 530, 5-{2-[(3-chloro-4-fluorophenyl)amino]-4-[3-(difluoromethyl)-5-methyl-1H-pyrazol-1-yl]pyrimidin-5-yl}pyridine-3-carboxylic acid], the inhibition at 13 µM is 100%.

For the compound `Cc1cc(C(F)F)n(-c2nc(Nc3ccc(F)c(Cl)c3)ncc2-c2cncc(C(=O)O)c2)n1` [Example 531, 5-{2-[(3-chloro-4-fluorophenyl)amino]-4-[5-(difluoromethyl)-3-methyl-1H-pyrazol-1-yl]pyrimidin-5-yl}pyridine-3-carboxylic acid], the inhibition at 13 µM turned out to be 100%.

Take `O=C(O)c1cncc(-c2cnc(Nc3ccc(F)c(Cl)c3)nc2-n2nc(C(F)F)cc2C(F)F)c1` [Example 532, 5-{4-[3,5-bis(difluoromethyl)-1H-pyrazol-1-yl]-2-[(3-chloro-4-fluorophenyl)amino]-pyrimidin-5-yl}pyridine-3-carboxylic acid]: the inhibition at 13 µM is 100%.

For the compound `O=C(O)c1cncc(-c2cnc(Nc3ccc(F)c(Cl)c3)nc2-n2ccc(-c3ccsc3)n2)c1` [Example 533, 5-{2-[(3-chloro-4-fluorophenyl)amino]-4-[3-(thiophen-3-yl)-1H-pyrazol-1-yl]pyrimidin-5-yl}pyridine-3-carboxylic acid], the inhibition at 13 µM came to 100%.

`CC(=O)Nc1ccn(-c2nc(Nc3ccc(F)c(Cl)c3)ncc2-c2cncc(C(=O)O)c2)n1` [Example 534, 5-{4-[3-(acetylamino)-1H-pyrazol-1-yl]-2-[(3-chloro-4-fluorophenyl)amino]pyrimidin-5-yl}pyridine-3-carboxylic acid]: the inhibition at 13 µM came out at 49%.

In the case of `O=C(O)c1cncc(-c2cnc(Nc3ccc(F)c(Cl)c3)nc2-n2cc(-c3ccccn3)cn2)c1` [Example 535], the inhibition at 13 µM was 100%.

In the case of `O=C(O)c1cncc(-c2cnc(Nc3ccc(F)c(Cl)c3)nc2-n2cc(-c3ccncn3)cn2)c1` [Example 536, 5-{2-[(3-chloro-4-fluorophenyl)amino]-4-[4-(pyrimidin-4-yl)-1H-pyrazol-1-yl]pyrimidin-5-yl}pyridine-3-carboxylic acid], the inhibition at 13 µM turned out to be 100%.

As for `Cc1cc(-c2nccs2)nn1-c1nc(Nc2ccc(F)c(Cl)c2)ncc1-c1cncc(C(N)=O)c1` [Example 537, 5-{2-[(3-chloro-4-fluorophenyl)amino]-4-[5-methyl-3-(1,3-thiazol-2-yl)-1H-pyrazol-1-yl]pyrimidin-5-yl}pyridine-3-carboxamide], the inhibition at 13 µM worked out at 100%.

In the case of `Cc1cc(C(F)F)nn1-c1nc(Nc2ccc(F)c(Cl)c2)ncc1-c1cncc(C(N)=O)c1` [Example 538, 5-{2-[(3-chloro-4-fluorophenyl)amino]-4-[3-(difluoromethyl)-5-methyl-1H-pyrazol-1-yl]pyrimidin-5-yl}pyridine-3-carboxamide], the inhibition at 13 µM worked out at 100%.

With `NC(=O)c1cncc(-c2cnc(Nc3ccc(F)c(Cl)c3)nc2-n2nc(C(F)F)cc2C(F)F)c1` [Example 539, 5-{4-[3,5-bis(difluoromnethyl)-1H-pyrazol-1-yl]-2-[(3-chloro-4-fluorophenyl)amino]pyrimidin-5-yl}pyridine-3-carboxamide], the inhibition at 13 µM is 100%.

Turning to `NC(=O)c1cncc(-c2cnc(Nc3ccc(F)c(Cl)c3)nc2-n2ccc(-c3ccsc3)n2)c1` [Example 540, 5-{2-[(3-chloro-4-fluorophenyl)amino]-4-[3-(thiophen-3-yl)-1H-pyrazol-1-yl]pyrimidin-5-yl}pyridine-3-carboxamide], the inhibition at 13 µM was 100%.

Consider `CC(=O)Nc1ccn(-c2nc(Nc3ccc(F)c(Cl)c3)ncc2-c2cncc(C(N)=O)c2)n1` [Example 541, 5-{4-[3-(acetylamino)-1H-pyrazol-1-yl]-2-[(3-chloro-4-fluorophenyl)amino]pyrimidin-5-yl}pyridine-3-carboxamide], for which the inhibition at 13 µM turned out to be 97%.

Regarding `NC(=O)c1cncc(-c2cnc(Nc3ccc(F)c(Cl)c3)nc2-n2cc(-c3ccccn3)cn2)c1` [Example 542], the inhibition at 13 µM came out at 85%.

As for `NC(=O)c1cncc(-c2cnc(Nc3ccc(F)c(Cl)c3)nc2-n2cc(-c3ccncn3)cn2)c1` [Example 543, 5-{2-[(3-chloro-4-fluorophenyl)amino]-4-[4-(pyrimidin-4-yl)-1H-pyrazol-1-yl]pyrimidin-5-yl}pyridine-3-carboxamide], the inhibition at 13 µM was 68%.

Take `CONC(=O)c1cncc(-c2cnc(Nc3ccc(F)c(Cl)c3)nc2-n2nc(-c3nccs3)cc2C)c1` [Example 545, 5-{2-[(3-chloro-4-fluorophenyl)amino]-4-[5-methyl-3-(1,3-thiazol-2-yl)-1H-pyrazol-1-yl]pyrimidin-5-yl}-N-methoxypyridine-3-carboxamide]: the inhibition at 13 µM was found to be 100%.

For the compound `CONC(=O)c1cncc(-c2cnc(Nc3ccc(F)c(Cl)c3)nc2-n2nc(C(F)F)cc2C)c1` [Example 546, 5-{2-[(3-chloro-4-fluorophenyl)amino]-4-[3-(difluoromethyl)-5-methyl-1H-pyrazol-1-yl]pyrimidin-5-yl}-N-methoxypyridine-3-carboxamide], the inhibition at 13 µM worked out at 100%.

As for `CONC(=O)c1cncc(-c2cnc(Nc3ccc(F)c(Cl)c3)nc2-n2nc(C(F)F)cc2C(F)F)c1` [Example 547, 5-{4-[3,5-bis(difluoromethyl)-1H-pyrazol-1-yl]-2-[(3-chloro-4-fluorophenyl)amino]pyrimidin-5-yl}-N-methoxypyridine-3-carboxamide], the inhibition at 13 µM amounted to 71%.

Take `CONC(=O)c1cncc(-c2cnc(Nc3ccc(F)c(Cl)c3)nc2-n2ccc(-c3ccsc3)n2)c1` [Example 548, 5-{2-[(3-chloro-4-fluorophenyl)amino]-4-[3-(thiophen-3-yl)-1H-pyrazol-1-yl]pyrimidin-5-yl}-N-methoxypyridine-3-carboxamide]: the inhibition at 13 µM turned out to be 95%.

Consider `CONC(=O)c1cncc(-c2cnc(Nc3ccc(F)c(Cl)c3)nc2-n2ccc(NC(C)=O)n2)c1` [Example 549, 5-{4-[3-(acetylamino)-1H-pyrazol-1-yl]-2-[(3-chloro-4-fluorophenyl)amino]-pyrimidin-5-yl}-N-methoxypyridine-3-carboxamide], for which the inhibition at 13 µM came to 94%.

Regarding `CONC(=O)c1cncc(-c2cnc(Nc3ccc(F)c(Cl)c3)nc2-n2cc(-c3ccccn3)cn2)c1` [Example 550, 5-{2-[(3-chloro-4-fluorophenyl)amino]-4-[4-(pyridin-2-yl)-1H-pyrazol-1-yl]pyrimidin-5-yl}-N-methoxypyridine-3-carboxamide], the inhibition at 13 µM was found to be 100%.

With `CONC(=O)c1cncc(-c2cnc(Nc3ccc(F)c(Cl)c3)nc2-n2cc(-c3ccncn3)cn2)c1` [Example 551, 5-{2-[(3-chloro-4-fluorophenyl)amino]-4-[4-(pyrimidin-4-yl)-1H-pyrazol-1-yl]pyrimidin-5-yl}-N-methoxypyridine-3-carboxamide], the inhibition at 13 µM amounted to 100%.

Turning to `Cc1cc(-c2nccs2)nn1-c1nc(Nc2ccc(F)c(Cl)c2)ncc1-c1cccc(/C=C/C(=O)O)c1` [Example 562, (2E)-3-(3-{2-[(3-chloro-4-fluorophenyl)amino]-4-[5-methyl-3-(1,3-thiazol-2-yl)-1H-pyrazol-1-yl]pyrimidin-5-yl}phenyl)prop-2-enoic acid], the inhibition at 13 µM worked out at 100%.

`Cc1cc(C(F)F)nn1-c1nc(Nc2ccc(F)c(Cl)c2)ncc1-c1cccc(/C=C/C(=O)O)c1` [Example 563, (2E)-3-(3-{2-[(3-chloro-4-fluorophenyl)amino]-4-[3-(difluoromethyl)-5-methyl-1H-pyrazol-1-yl]pyrimidin-5-yl}phenyl)prop-2-enoic acid]: the inhibition at 13 µM was found to be 100%.

These data come from patent publication US20100137313A1 (ASTRAZENECA AB, priority 2008, published 2010).
